Common to all, as to format: cell-based, human
Series [1] has as its system TISI cells (HLA-A24/24). Briefly: In vitro CTL induction and 51Cr-release cytotoxicity assay against peptide-loaded TISI cells. From the text: Monocyte-derived dendritic cells (DCs) were used as antigen-presenting cells (APCs) to induce CTLs against peptides presented on HLA. DCs were generated in vitro as described elsewhere (Nukaya I, et al., Int J Cancer. 1999; 80(1):92-7; Tsai V, et al., J Immunol. 1997; 158(4):1796-802). Briefly, peripheral blood mononuclear cells (PBMCs) were isolated from normal volunteers ((HLA-A24) by Ficoll-Paque (Pharmacia) solution and separated by adherence to a plastic tissue culture flask (Becton Dickinson) so as to enrich them for the monocyte fraction. The monocyte-enriched population was cultured in the presence of 1,000 U/ml of GM-CSF (provided by Kirin Brewery Company) and 1,000 U/ml of IL-4 (Genzyme) in AIM-V (Invitrogen) containing 2% heat-inactivated autologous serum (AS). After 7 days in the culture, the cytokine-generated DCs were loaded with 20 μg/ml of HLA-A24-binding peptides in the presence of 3 μg/ml of β2-microglobulin for 4 hrs at 20° C. in AIM-V. These peptide-loaded DCs were then irradiated (5,500 rad) and mixed at a 1:20 ratio with autologous CD8+ T cells, obtained by positive selection with Dynabeads M-450 CD8 (Dynal) and Detachabead (Dynal). This mixture was subdivided and aliquots were incubated in 48-well plates (Corning); each well contained 1.5×10^4 peptide-loaded DCs and 3×10^5 CD8+ T cells in 0.5 ml of AIM-V/2% AS containing 10 ng/ml of IL-7 (Genzyme). Three days later, these cultures were supplemented with IL-2 (CHIRON) to a final concentration of 20 IU/ml. On day 7 and 14, the T cells were further restimulated with the autologous peptide-loaded DCs. The DCs were prepared each time by the same way as described above. Cytotoxicity was tested against peptide-loaded TISI cells after the 3rd round of peptide stimulation on day 21. […]
Target cells were labeled with 100 μCi of Na2^51CrO4 (Perkin Elmer Life Sciences) for 1 hr at 37° C. in a CO2 incubator. […] After 4 hrs of incubation, 0.1 ml of the supernatant was collected from each well and the radioactivity was determined with a gamma counter. […]

Series [2] deals with DLD-1. Nature of the series: 51Cr-release cytotoxicity of CTL clones against DLD-1 cells endogenously expressing TOM34. The note with it: DLD-1, expresses TOM34 and HLA-A24. The method, then: (§1) Target cells were labeled with 100 μCi of Na2^51CrO4 (Perkin Elmer Life Sciences) for 1 hr at 37° C. in a CO2 incubator. Peptide-loaded target cells were prepared by incubating the cells with 20 μg/ml of the peptide for 16 hrs at 37° C. before labeling. Labeled target cells were rinsed and mixed with effector cells in a final volume of 0.2 ml in round-bottom microtiter plates. The plates were centrifuged (4 minutes at 800×g) to increase cell-to-cell contact and placed in a CO2 incubator at 37° C. After 4 hrs of incubation, 0.1 ml of the supernatant was collected from each well and the radioactivity was determined with a gamma counter. In case of evaluating cytotoxicity for target cells that endogenously express TOM34, the cytolytic activity was tested in the presence of 30-fold excess of unlabeled K562 cells to eliminate any non-specific lysis due to NK-like effectors. […]
(§2) The percentage of specific cytotoxicity was determined by calculating the percentage of specific ^51Cr-release by the following formula: {(cpm of the test sample release−cpm of the spontaneous release)/(cpm of the maximum release−cpm of the spontaneous release)}×100. Spontaneous release was determined by incubating the target cells alone, in the absence of effector cells, and the maximum release was obtained by incubating the targets with 1N HCl. […]

Series [3] concerns HT29. Nature of the series: 51Cr-release cytotoxicity of CTL clones against HT29 cells endogenously expressing TOM34. The note with it: HT29, expresses TOM34 and HLA-A24. The method, then: as §1, §2
Series [4] deals with SNU-C2A. Nature of the series: 51Cr-release cytotoxicity of CTL clones against SNU-C2A cells (TOM34 positive, HLA-A24 negative). The note with it: expresses TOM34 but not HLA-A24. On the procedure: as §1, §2
For series [5], the system named is HT29 cells. Briefly: Cold target inhibition assay. The following applies: E/T ratio 20; TISI with or without loaded peptide. On the procedure:
FIG. 9 depict HLA specificity of the CTL clones raised by TOM34-299. The CTL clone raised by TOM34-299 specifically recognizes TOM34 in the HLA-A24 restricted manner. • The cold target inhibition assay was performed as described in “Materials and Methods”. HT29 cells labeled by Na2^51CrO4 were prepared as hot target, while TISI cells with or without loaded TOM34-299 peptide were used without ^51Cr labeling as cold targets. E/T ratio was fixed at 20.
as §1

Where no end group is shown, it is not given here.

Take KLRQEVKQNL [KLRQEVKQNL]: the “cytotoxic activity of CTL lines against the peptide-loaded target” value in series [1] (CTL lines stimulated by the peptide, TISI loaded with peptide) is recorded as “potent cytotoxic activity”. In addition, the “cytotoxic activity of CTL lines against targets not loaded with the peptide” value in series [1] (TISI without loaded peptide) is on record as “without showing any significant cytotoxic activity”. Further, the “E/T ratio at which antigen-specific cytotoxicity of CTL lines is detectable” value in series [1] (as low as) was found to be 1.2. Moreover, the “cytotoxic activity of two CTL clones” value in series [2] is reported as “potent cytotoxic activity”; in series [3], “potent cytotoxic activity”; in series [4], “neither of the two CTL clones showed any relevant cytotoxic activity”. Moreover, in series [5], the “cytotoxic activity of CTL clone against HT29 in presence of cold target TISI cells” value is reported as “inhibited by the addition of TISI cells only when loaded with the peptide”.

(Values after patent US8674059B2, “Colon cancer related gene TOM34” (Oncotherapy Science, Inc., priority 2005, dated 2014).)
